Source: patent US5556847A, “Methods of effecting memory enhancement mediated by steroid sulfatase inhibitors” (Duquesne University of the Holy Ghost, priority 1994, dated 1996)
Counter-ions that a name gives are not always drawn.

How the values were obtained:
steroid sulfatase = assay: inhibition of steroid sulfatase after dosing; type: in vivo
Method: (§1) In order to determine whether EMATE alone could enhance memory, four groups of rats (10 animals per group), were injected with EMATE (10 mg/Kg; IP), either four hours before the acquisition trial, or dally for 3, 10 or 15 days before the acquisition trial. Twenty-four hours following the acquisition trial crossover latency was determined. The dally dosage of EMATE was 10 mg/kg which inhibited the sulfatase enzyme for about three to four days.
Sulfatase inhibitor EMATE can effect the memory enhancement of peripherally administered DHEAS, a neurosteroid, by inhibiting the metabolism of DHEAS to DHEA. […] A single dose (10 mg/kg) can inhibit greater than 98% of sulfatase after 24 hours. After 10 days of treatment the sulfatase activity in the whole body (including liver, adrenal gland, ovary, uterus and brain) is inhibited. The administration of EMATE alone can alter the equilibrium between the endogenous sulfated and unsulfated forms of neurosteroids in such a way as to enhance memory.

[1] = test system: scopolamine-induced amnesia; assay: passive avoidance paradigm, reversal of scopolamine-induced amnesia (crossover latency); type: in vivo, rats
Method: Male rats weighing between 80 and 100 grams were purchased from Hilltop Lab Animals Inc. (Scottdale, Pa.) and housed in hanging wire mesh cages in groups of three with water and rat chow available ad libitum. The room in which the animals were housed was controlled for both temperature and humidity, there was a standard 12 hour, light/dark cycle. To assess memory, the Gemini Avoidance System (San Diego Instruments) was utilized in a standard passive avoidance paradigm. Briefly, the avoidance apparatus consisted of a box (53×53×32 cm) with two compartments connected by an opening with a sliding door. The room in which the rat was placed was brightly lit, while the other room was dark. Initially, the animals were allowed to explore the apparatus and were then removed. During the memory acquisition trial, animals were placed in the light compartment. When an animal entered the dark compartment, the sliding door closed and a mild foot shock (1mA; 1 sec.) was delivered. The rat was then removed from the apparatus and returned to its cage. Twenty-four hours later the rat was again placed in the light side of the apparatus and the time latency to crossing to the dark room recorded. […] The acquisition of memory for the foot shock was assessed as an increased latency period before entering the dark room on the second day. Significant differences in crossover latency were determined by statistical analysis utilizing one-way analysis of a variance with a Dunnett's test post hoc. Significant differences between groups were interpreted as differences in memory acquisition resulting from the various treatments.
To determine the effect of DHEAS on memory, one hour before the acquisition trial […] of ten animals were injected intraperitoneally (IP) with one of the following several doses of DHEAS (5, 10, 20, 30, 50, 70 mg/Kg/ml dissolved saline) or saline. All animals in a given group were administered the same dosage. […] Twenty-four hours later the rats were again placed in the apparatus and the time delay before the animals entered the dark compartment was recorded.
Twenty-four hours later, crossover latency (the time delay before the rats crossed to the dark compartment) for the groups was determined.
as §1

Row | SMILES | sulfatase activity in the whole body (including liver, adrenal gland, ovary, uterus and brain) (steroid sulfatase; after 10 days of treatment) | duration of inhibition of the sulfatase enzyme (steroid sulfatase; dosage 10 mg/kg) | kind of steroid sulfatase inhibition (steroid sulfatase; in vivo) | inhibition of sulfatase (steroid sulfatase; single dose 10 mg/kg, after 24 hours) | reversal of scopolamine-induced amnesia ([1]; EMATE alone 10 mg/Kg IP daily for 10 and 15 days before acquisition trial) | crossover latency ([1]; EMATE alone 10 mg/Kg IP daily for 10 days before acquisition trial) [s] | crossover latency ([1]; EMATE alone 10 mg/Kg IP daily for 15 days before acquisition trial) [s] | effect on crossover latency ([1]; EMATE alone, single dose 10 mg/Kg IP four hours before acquisition trial) | crossover latency (maximum effect) ([1]; DHEAS 20 mg/Kg IP one hour before acquisition trial, scopolamine 1 mg/Kg IP, latency 24 hours later) [s] | reversal of scopolamine-induced amnesia ([1]; DHEAS 5-70 mg/Kg IP one hour before acquisition trial, scopolamine 1 mg/Kg IP 30 minutes before, bell shaped dose response curve)
1 | C[C@]12CC[C@@H]3c4ccc(OS(N)(=O)=O)cc4CC[C@H]3[C@@H]1CCC2=O [EMATE, estrone - 3-sulfamate] | inhibited | about three to four | potent irreversible inhibitor | greater than 98% | significant (p≤0.05) reversal of scopolamine-induced amnesia | 263.1 ± 69.7 | 297.0 ± 88.7 | failed to increase crossover latency | – | –
2 | C[C@]12CC[C@H](OS(=O)(=O)O)CC1=CC[C@@H]1[C@@H]2CC[C@]2(C)C(=O)CC[C@@H]12 [DHEAS, dehydroepiandrosterone sulfate, reference compound] | – | – | – | – | – | – | – | – | 299.4 ± 83.5 | significant (p≤0.05), reversal of scopolamine-induced amnesia
